Reference: US5530126A, “Process for the preparation of substituted 6-(pyrazol-3yl)-1,4-benzoxazin-3-ones” (Monsanto Company, priority 1994, dated 1996)

What was measured:
Assay type in all cases: in vivo
[1] = test system: Seedling johnsongrass; experiment: Pre-emergence herbicide test; conditions: Sorghum halepense, read-out: % plant inhibition (Sejg); for inhibition at 11210 g/ha: 11.21 kg/ha; for inhibition at 1120 g/ha: 1.12 kg/ha
Procedure, shortened: (§1)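 Compound applied pre-emergence directly onto sown seeds in soil, then seeds covered with untreated topsoil. Plants grown in greenhouse with bottom watering. Inhibition (%) recorded visually at about 11 days.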

[2] = test system: Indian Mustard; experiment: Pre-emergence herbicide test; conditions: Brassica juncea, read-out: % plant inhibition (Inmu); for inhibition at 11210 g/ha: 11.21 kg/ha; for inhibition at 1120 g/ha: 1.12 kg/ha
Procedure, shortened: as §1

[3] = test system: Cocklebur; experiment: Pre-emergence herbicide test; conditions: Xanthium strumarium, read-out: % plant inhibition (Cobu); for inhibition at 11210 g/ha: 11.21 kg/ha; for inhibition at 1120 g/ha: 1.12 kg/ha
Procedure, shortened: as §1

[4] = test system: Annual bluegrass; experiment: Pre-emergence herbicide test; conditions: read-out: % plant inhibition (Anbg); for inhibition at 11210 g/ha: 11.21 kg/ha; for inhibition at 1120 g/ha: 1.12 kg/ha
Procedure, shortened: as §1

[5] = test system: Morningglory; experiment: Pre-emergence herbicide test; conditions: Ipomoea, read-out: % plant inhibition (Mogl); for inhibition at 11210 g/ha: 11.21 kg/ha; for inhibition at 1120 g/ha: 1.12 kg/ha
Procedure, shortened: as §1

[6] = test system: Yellow nutsedge; experiment: Pre-emergence herbicide test; conditions: Cyperus, read-out: % plant inhibition (Yens); for inhibition at 11210 g/ha: 11.21 kg/ha; for inhibition at 1120 g/ha: 1.12 kg/ha
Procedure, shortened: as §1

[7] = test system: Wild buckwheat; experiment: Pre-emergence herbicide test; conditions: Fallopia convolvulus, read-out: % plant inhibition (Wibw); for inhibition at 11210 g/ha: 11.21 kg/ha; for inhibition at 1120 g/ha: 1.12 kg/ha
Procedure, shortened: as §1

[8] = test system: Velvetleaf; experiment: Pre-emergence herbicide test; conditions: Abutilon theophrasti, read-out: % plant inhibition (Vele); for inhibition at 11210 g/ha: 11.21 kg/ha; for inhibition at 1120 g/ha: 1.12 kg/ha
Procedure, shortened: as §1

[9] = test system: Barnyardgrass; experiment: Pre-emergence herbicide test; conditions: Echinochloa crus-galli, read-out: % plant inhibition (Bygr); for inhibition at 11210 g/ha: 11.21 kg/ha; for inhibition at 1120 g/ha: 1.12 kg/ha
Procedure, shortened: as §1

[10] = test system: Downy Brome; experiment: Pre-emergence herbicide test; conditions: Bromus tectorum, read-out: % plant inhibition (Dobr); for inhibition at 11210 g/ha: 11.21 kg/ha; for inhibition at 1120 g/ha: 1.12 kg/ha
Procedure, shortened: as §1

[11] = test system: Seedling johnsongrass; experiment: Post-emergence herbicide test; conditions: Sorghum halepense, read-out: % plant inhibition (Sejg); for inhibition at 11210 g/ha: 11.21 kg/ha; for inhibition at 1120 g/ha: 1.12 kg/ha
Procedure, shortened: (§2)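 Pot-grown plants two to three weeks old sprayed at 170.3 kPa with test compound in ~0.4% emulsifier, 1870 L/Ha spray volume. Percent inhibition versus control scored about 11 days after spraying, sometimes again at about 25 days.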

[12] = test system: Indian Mustard; experiment: Post-emergence herbicide test; conditions: Brassica juncea, read-out: % plant inhibition (Inmu); for inhibition at 11210 g/ha: 11.21 kg/ha; for inhibition at 1120 g/ha: 1.12 kg/ha
Procedure, shortened: as §2

[13] = test system: Cocklebur; experiment: Post-emergence herbicide test; conditions: Xanthium strumarium, read-out: % plant inhibition (Cobu); for inhibition at 11210 g/ha: 11.21 kg/ha; for inhibition at 1120 g/ha: 1.12 kg/ha
Procedure, shortened: as §2

[14] = test system: Annual bluegrass; experiment: Post-emergence herbicide test; conditions: read-out: % plant inhibition (Anbg); for inhibition at 11210 g/ha: 11.21 kg/ha; for inhibition at 1120 g/ha: 1.12 kg/ha
Procedure, shortened: as §2

[15] = test system: Morningglory; experiment: Post-emergence herbicide test; conditions: Ipomoea, read-out: % plant inhibition (Mogl); for inhibition at 11210 g/ha: 11.21 kg/ha; for inhibition at 1120 g/ha: 1.12 kg/ha
Procedure, shortened: as §2

[16] = test system: Yellow nutsedge; experiment: Post-emergence herbicide test; conditions: Cyperus, read-out: % plant inhibition (Yens); for inhibition at 11210 g/ha: 11.21 kg/ha; for inhibition at 1120 g/ha: 1.12 kg/ha
Procedure, shortened: as §2

[17] = test system: Wild buckwheat; experiment: Post-emergence herbicide test; conditions: Fallopia convolvulus, read-out: % plant inhibition (Wibw); for inhibition at 11210 g/ha: 11.21 kg/ha; for inhibition at 1120 g/ha: 1.12 kg/ha
Procedure, shortened: as §2

[18] = test system: Velvetleaf; experiment: Post-emergence herbicide test; conditions: Abutilon theophrasti, read-out: % plant inhibition (Vele); for inhibition at 11210 g/ha: 11.21 kg/ha; for inhibition at 1120 g/ha: 1.12 kg/ha
Procedure, shortened: as §2

[19] = test system: Barnyardgrass; experiment: Post-emergence herbicide test; conditions: Echinochloa crus-galli, read-out: % plant inhibition (Bygr); for inhibition at 11210 g/ha: 11.21 kg/ha; for inhibition at 1120 g/ha: 1.12 kg/ha
Procedure, shortened: as §2

[20] = test system: Downy Brome; experiment: Post-emergence herbicide test; conditions: Bromus tectorum, read-out: % plant inhibition (Dobr); for inhibition at 11210 g/ha: 11.21 kg/ha; for inhibition at 1120 g/ha: 1.12 kg/ha
Procedure, shortened: as §2

Structure (SMILES)	inhibition at 11210 g/ha [1] [%]	inhibition at 11210 g/ha [2] [%]	inhibition at 11210 g/ha [3] [%]	inhibition at 11210 g/ha [4] [%]	inhibition at 11210 g/ha [5] [%]	inhibition at 11210 g/ha [6] [%]	inhibition at 11210 g/ha [7] [%]	inhibition at 11210 g/ha [8] [%]	inhibition at 11210 g/ha [9] [%]	inhibition at 11210 g/ha [10] [%]	inhibition at 11210 g/ha [11] [%]	inhibition at 11210 g/ha [12] [%]	inhibition at 11210 g/ha [13] [%]	inhibition at 11210 g/ha [14] [%]	inhibition at 11210 g/ha [15] [%]	inhibition at 11210 g/ha [16] [%]	inhibition at 11210 g/ha [17] [%]	inhibition at 11210 g/ha [18] [%]	inhibition at 11210 g/ha [19] [%]	inhibition at 11210 g/ha [20] [%]	further results
CCS(=O)(=O)N(c1cc(-c2nn(C)c(C(F)(F)F)c2Cl)c(Cl)cc1Cl)S(=O)(=O)CC [Compound 90]	50	10	0	10	10	0	30	20	10	10	0	50	30	10	60	0	50	100	0	10	–
CCS(=O)(=O)Nc1cc(-c2nn(C)c(C(F)(F)F)c2Cl)c(Cl)cc1Cl [Compound 92]	–	–	–	–	–	–	–	–	–	–	–	–	–	–	–	–	–	–	–	–	inhibition at 1120 g/ha [1]: 0%; inhibition at 1120 g/ha [2]: 20%; inhibition at 1120 g/ha [3]: 20%; inhibition at 1120 g/ha [4]: 0%; inhibition at 1120 g/ha [5]: 80%; inhibition at 1120 g/ha [6]: 0%; inhibition at 1120 g/ha [7]: 80%; inhibition at 1120 g/ha [8]: 90%; inhibition at 1120 g/ha [9]: 0%; inhibition at 1120 g/ha [10]: 0%; inhibition at 1120 g/ha [11]: 40%; inhibition at 1120 g/ha [12]: 80%; inhibition at 1120 g/ha [13]: 80%; inhibition at 1120 g/ha [14]: 30%; inhibition at 1120 g/ha [15]: 100%; inhibition at 1120 g/ha [16]: 20%; inhibition at 1120 g/ha [17]: 80%; inhibition at 1120 g/ha [18]: 100%; inhibition at 1120 g/ha [19]: 30%; inhibition at 1120 g/ha [20]: 50%
CC(=NOCC(N)=O)c1cc(-c2nn(C)c(C(F)(F)F)c2Cl)c(F)cc1Cl [Compound 105]	–	–	–	–	–	–	–	–	–	–	–	–	–	–	–	–	–	–	–	–	inhibition at 1120 g/ha [1]: 60%; inhibition at 1120 g/ha [2]: 80%; inhibition at 1120 g/ha [3]: 10%; inhibition at 1120 g/ha [4]: 0%; inhibition at 1120 g/ha [5]: 80%; inhibition at 1120 g/ha [6]: 20%; inhibition at 1120 g/ha [7]: 80%; inhibition at 1120 g/ha [8]: 90%; inhibition at 1120 g/ha [9]: 70%; inhibition at 1120 g/ha [10]: 40%; inhibition at 1120 g/ha [11]: 20%; inhibition at 1120 g/ha [12]: 30%; inhibition at 1120 g/ha [13]: 20%; inhibition at 1120 g/ha [14]: 30%; inhibition at 1120 g/ha [15]: 40%; inhibition at 1120 g/ha [16]: 20%; inhibition at 1120 g/ha [17]: 100%; inhibition at 1120 g/ha [18]: 80%; inhibition at 1120 g/ha [19]: 20%; inhibition at 1120 g/ha [20]: 0%
Cn1nc(C(F)(F)F)c(Cl)c1-c1cc([N+](=O)[O-])c(F)cc1F [Compound 77]	40	30	0	80	0	0	20	30	30	10	20	60	20	20	10	0	60	30	20	0	–
Cn1nc(-c2cc(Oc3ccc(C(F)(F)F)cc3)c(Cl)cc2F)c(Cl)c1C(F)(F)F [Compound 205]	20	30	0	0	0	0	10	10	0	0	70	60	60	40	80	0	90	100	10	50	–
Cn1nc(C(F)(F)F)c(Cl)c1-c1ccc(Cl)cc1 [Compound 66]	90	50	20	50	100	0	90	90	10	60	80	30	0	0	70	0	100	50	20	30	–
Cn1nc(-c2cc(C(=O)OC3CCCCC3)c(Cl)cc2F)c(Cl)c1C(F)(F)F [Compound 134]	–	–	–	–	–	–	–	–	–	–	–	–	–	–	–	–	–	–	–	–	inhibition at 1120 g/ha [1]: 40%; inhibition at 1120 g/ha [2]: 60%; inhibition at 1120 g/ha [3]: 30%; inhibition at 1120 g/ha [4]: 50%; inhibition at 1120 g/ha [5]: 20%; inhibition at 1120 g/ha [6]: 0%; inhibition at 1120 g/ha [7]: 90%; inhibition at 1120 g/ha [8]: 70%; inhibition at 1120 g/ha [9]: 10%; inhibition at 1120 g/ha [10]: 70%; inhibition at 1120 g/ha [11]: 100%; inhibition at 1120 g/ha [12]: 100%; inhibition at 1120 g/ha [13]: 100%; inhibition at 1120 g/ha [14]: 100%; inhibition at 1120 g/ha [15]: 100%; inhibition at 1120 g/ha [16]: 20%; inhibition at 1120 g/ha [17]: 100%; inhibition at 1120 g/ha [18]: 100%; inhibition at 1120 g/ha [19]: 100%; inhibition at 1120 g/ha [20]: 100%
Cn1nc(-c2cc(C3OCCO3)c(Cl)cc2F)c(Cl)c1C(F)(F)F [Compound 100, 4-chloro-3-(4-chloro-5-(1,3-dioxolan-2-yl)-2-fluorophenyl)-1-methyl-5-(trifluoromethyl)-1H-pyrazole]	–	–	–	–	–	–	–	–	–	–	–	–	–	–	–	–	–	–	–	–	inhibition at 1120 g/ha [1]: 90%; inhibition at 1120 g/ha [2]: 100%; inhibition at 1120 g/ha [3]: 20%; inhibition at 1120 g/ha [4]: 90%; inhibition at 1120 g/ha [5]: 80%; inhibition at 1120 g/ha [6]: 0%; inhibition at 1120 g/ha [7]: 100%; inhibition at 1120 g/ha [8]: 100%; inhibition at 1120 g/ha [9]: 70%; inhibition at 1120 g/ha [10]: 100%; inhibition at 1120 g/ha [11]: 100%; inhibition at 1120 g/ha [12]: 80%; inhibition at 1120 g/ha [13]: 80%; inhibition at 1120 g/ha [14]: 100%; inhibition at 1120 g/ha [15]: 100%; inhibition at 1120 g/ha [16]: 20%; inhibition at 1120 g/ha [17]: 100%; inhibition at 1120 g/ha [18]: 100%; inhibition at 1120 g/ha [19]: 100%; inhibition at 1120 g/ha [20]: 100%
CCOC(=O)CSCc1cc(-c2nn(C)c(C(F)(F)F)c2Cl)c(F)cc1Cl [Compound 123]	–	–	–	–	–	–	–	–	–	–	–	–	–	–	–	–	–	–	–	–	inhibition at 1120 g/ha [1]: 40%; inhibition at 1120 g/ha [2]: 80%; inhibition at 1120 g/ha [3]: 50%; inhibition at 1120 g/ha [4]: 0%; inhibition at 1120 g/ha [5]: 100%; inhibition at 1120 g/ha [6]: 30%; inhibition at 1120 g/ha [7]: 90%; inhibition at 1120 g/ha [8]: 100%; inhibition at 1120 g/ha [9]: 30%; inhibition at 1120 g/ha [10]: 70%; inhibition at 1120 g/ha [11]: 50%; inhibition at 1120 g/ha [12]: 30%; inhibition at 1120 g/ha [13]: 70%; inhibition at 1120 g/ha [14]: 0%; inhibition at 1120 g/ha [15]: 100%; inhibition at 1120 g/ha [16]: 20%; inhibition at 1120 g/ha [17]: 90%; inhibition at 1120 g/ha [18]: 100%; inhibition at 1120 g/ha [19]: 50%; inhibition at 1120 g/ha [20]: 60%
Cc1cc(-c2c(Cl)c(C(F)(F)F)nn2C)c(F)cc1Cl [Compound 63]	100	100	60	100	100	0	100	100	100	100	70	40	0	20	100	0	100	100	20	20	–
